Data reported in patent US9586986B2, “Substituted 7-deazapurine ribonucleosides for therapeutic uses” (Institute of Organic Chemistry and Biochemistry ASCR, v.v.i., priority 2014, dated 2017).
Like-named read-outs stand apart in the source and are kept apart here.

Experiments:
Format in all cases: cell-based
HepG2 = experiment: XTT cytotoxicity assay, HepG2; conditions: Homo sapiens, read-out: XTT, IC50 HepG2
Protocol: (§1) HL-60, Hela S3 and HepG2 cell lines (ATCC) were grown in RPMI-1640 or DMEM medium supplemented with 10% fetal calf serum, […] of streptomycin, 200 U/mL of penicillin G and 4 mM glutamine in a humidified atmosphere containing 5% CO2 at 37° C. Sensitivity of these cell lines to the synthesized compounds was assessed with the use of XTT cell proliferation kit II (Roche Diagnostics GmbH, Mannheim, Germany) according to the manufacturer's instructions. Briefly, cells were seeded in a 96-well plate at a density of 10,000 cells per well (90 μL). After 24 h, 10 μL of the tested compounds were added to the culture media at desired concentration range and incubated for 72 h. After that 50 μL of the XTT solution was added (1 mg/mL XTT+0.383 mg/mL N-methyl dibenzopyrazine methyl sulfate). The absorbance was recorded at 495 nm following a 2 h-incubation with the dye. IC50 values were determined by non-linear regression method using GraphPad Prism version 5.00 for Windows (GraphPad Software, La Jolla, Calif., USA).

MRC-5 = experiment: Cytostatic/cytotoxic MTT assay, MRC-5 fibroblasts; conditions: Homo sapiens, read-out: MTT, IC50 MRC-5
Description: (§2) Unless otherwise stated, all cells were purchased from the […] (ATCC). The CCRF-CEM line is derived from T lymphoblastic leukemia, evincing high chemosenzitivity, K562 represent cells from a […] patient sample with bcr-abl translocation, HCT116 is colorectal tumor cell line and its p53 gene knock-down counterpart (HCT116p53−/−, Horizon Discovery, UK) is a model of human cancers with p53 inactivation frequently associated with poor prognosis, A549 cell line is lung adenocarcinoma. The daunorubicin resistant subline of CCRF-CEM cells (CEM-DNR bulk) and paclitaxel resistant subline K562-TAX were selected in our laboratory by cultivation of maternal cell lines in increasing concentrations of daunorubicine or paclitaxel, respectively. The CEM-DNR cells overexpress mrp-1 and mdr-1 genes, while K562-TAX cells overexpress mdr-1 only. Both proteins belong to the family of ABC transporters and are involved in the primary and/or acquired multidrug resistance phenomenon (ref.: Gottesman, M. M.; Fojo, T.; Bates, S. E. Multidrug resistance in cancer: role of ATP-dependent transporters. Nat. Rev. Cancer. 2002, 2, 48-58. (b) Noskova, V.; Dzubak, P.; Kuzmina, G.; Ludkova, A.; Stehlik, D.; Trojanec, R.; Janostakova, A.; Korinkova, G.; Mihal, V.; Hajduch, M. In vitro chemoresistance profile and expression/function of MDR associated proteins in resistant cell lines derived from CCRF-CEM, K562, A549 and MDA MB 231 parental cells. Neoplasma 2002, 49, 418-425). Non-malignant MRC-5 and BJ cells, derived from normal human fibroblasts, were used as controls. The cells were maintained in Nunc/Corning 80 cm^2 plastic tissue culture flasks and cultured in cell culture medium (DMEM/RPMI 1640 with 5 g/L glucose, 2 mM glutamine, 100 U/mL penicillin, 100 µg/mL streptomycin, 10% fetal calf serum, and NaHCO3). Cell suspensions were prepared and diluted according to the particular cell type and the expected target cell density (25,000-30,000 cells/well based on cell growth characteristics). Cells were added by pipette (80 L) into 96-well microtiter plates. Inoculates were allowed a pre-incubation period of 24 h at 37° C. and 5% CO2 for stabilization. Four-fold dilutions, in 20-L aliquots, of the intended test concentration were added to the microtiter plate walls at time zero. All test compound concentrations were examined in duplicate. Incubation of the cells with the test compounds lasted for 72 h at 37° C., in a 5% CO2 atmosphere at 100% humidity. At the end of the incubation period, the cells were assayed using MTT. Aliquots (10 L) of the MTT stock solution (5 mg/ml) were pipetted into each well and incubated for another 1-4 h. After this incubation period the formazan produced was dissolved by addition of 100 µL/well of 10% aq SDS (pH 5.5), followed by a further incubation at 37° C. overnight. The optical density was measured at 540 nm. The IC50 value, the drug concentration inhibiting the cell growth by 50%, was calculated from appropriate dose-response curves.
(§3) In vitro cytotoxic/cytostatic activity final nucleosides 1-5 was initially evaluated against […] cell lines derived from human solid tumors including lung (A549 cells) and colon (HCT116 and HCT116p53−/−) carcinomas, as well as leukemia cell lines (CCRF-CEM, CEM-DNR, K562 and K562-TAX) and, for comparison, non-malignant BJ and MRC-5 fibroblasts. Concentrations inhibiting the cell growth by 50% (IC50) were determined using a quantitative metabolic staining with 3-(4,5-dimethylthiazol-2-yl)-2,5-diphenyltetrazolium bromide (MTT) (ref.: Denizot, F.; Lang, R. Rapid colorimetric assay for cell growth and survival: Modifications to the tetrazolium dye procedure giving improved sensitivity and reliability. J. Immunol. Meth. 1986, 89, 271-277) following a 3-day treatment.

HL60 = experiment: XTT cytotoxicity assay, HL-60; conditions: Homo sapiens, read-out: XTT, IC50 HL60
Protocol: as §1
In addition, the anti-proliferative effect was tested against a human T-lymphoblastic leukemia line CCRF-CEM, promyelocytic leukemia HL-60 and cervical carcinoma HeLa S3 growing in liquid suspension. Cell viability was determined following a 3-day incubation using 2,3-bis-(2-methoxy-4-nitro-5-sulfophenyl)-2H-tetrazolium-5-carboxanilide (XTT) assay (ref.: Scudiero, D. A.; Shoemaker, R. H.; Paull, K. D.; Monks, A.; Tierney, S.; Nofziger, T. H.; Currens, M. J.; Seniff, D.; Boyd M. R. Evaluation of a Soluble Tetrazolium/Formazan Assay for Cell Growth and Drug Sensitivity in Culture Using Human and Other Tumor Cell Lines. Cancer Res. 1988, 48, 4827-4833).

BJ = experiment: Cytostatic/cytotoxic MTT assay, BJ fibroblasts; conditions: Homo sapiens, 72 h, read-out: MTT, IC50 BJ
Description: as §2, §3

CCRF-CEM = experiment: Cytostatic/cytotoxic MTT assay, CCRF-CEM; conditions: Homo sapiens, read-out: MTT, IC50 CCRF-CEM
Description: as §2, §3

[1] = tested on: Huh-7 cells harboring replicon 1B; experiment: Cytotoxicity in replicon 1B cells; conditions: HCV subtype 1B replicon
Protocol: Compounds were also tested in Huh-7 cells harboring sub-genomic reporter replicons derived from HCV subtypes 1B and 2A (ref.: Stuyver, L. J.; Whitaker, T.; McBrayer, T. R.; Hernandez-Santiago, B. I.; Lostia, S.; Tharnish, P. M.; Ramesh, M.; Chu, C. K.; Jordan, R.; Shi, J. X.; Rachakonda, S.; Watanabe, K. A.; Otto, M. J.; Schinazi, R. F. Antimicrob. Agents Chemother. 2003, 47, 244-254).

[2] = MRC5, non-malignant fibroblasts, 72 h

| Compound | IC50 (HepG2; HepG2, 72 h incubation) | IC50 (MRC-5; [2]) | IC50 (HL60; HL-60, 72 h incubation) | IC50 (BJ; non-malignant fibroblasts) | IC50 (CCRF-CEM; 72 h incubation) | CC50 [1] | IC50 (HepG2; HepG2, 72 h) | IC50 (MRC-5; MRC5, 72 h) | IC50 (HL60; HL-60, 72 h) | IC50 (BJ) | IC50 (CCRF-CEM; 72 h) |
| --- | --- | --- | --- | --- | --- | --- | --- | --- | --- | --- | --- |
| Cc1ncnc2c1c(-c1ccoc1)cn2[C@@H]1O[C@H](CO)[C@@H](O)[C@H]1O [Compound 5b, 5-(Furan-3-yl)-4-methyl-7-(β-D-ribofuranosyl)-7H-pyrrolo[2,3-d]pyrimidine] | 5.32 µM | 98.3 µM | > 15 µM | 89.2 µM | > 20 µM | > 44 µM |  |  |  |  |  |
| CSc1ncnc2c1ccn2[C@@H]1O[C@H](CO)[C@@H](O)[C@H]1O [RC2, reference compound] |  |  |  |  |  | > 44 µM | > 20 µM | > 100 µM | 7.19 µM | > 100 µM | > 20 µM |
| COc1ncnc2c1c(-c1ccco1)cn2[C@@H]1O[C@H](CO)[C@@H](O)[C@H]1O [Compound 1a, 5-(Furan-2-yl)-4-methoxy-7-(β-D-ribofuranosyl)-7H-pyrrolo[2,3-d]pyrimidine] | 0.3 µM | 1.7 µM | 0.1 µM | 0.43 µM | 0.02 µM | > 44 µM |  |  |  |  |  |
| COc1ncnc2c1ccn2[C@@H]1O[C@H](CO)[C@@H](O)[C@H]1O [RC1, reference compound] | > 20 µM | > 100 µM | > 20 µM | > 100 µM | > 20 µM | > 44 µM |  |  |  |  |  |
| COc1ncnc2c1c(I)cn2[C@@H]1O[C@H](CO)[C@@H](O)[C@H]1O [Compound 1h, 5-iodo-4-methoxy-7-(β-D-ribofuranosyl)-7H-pyrrolo[2,3-d]pyrimidine, reference compound] | > 20 µM | 63 µM | 2.3 µM | 91 µM | 1.15 µM | > 44 µM |  |  |  |  |  |
| Cc1ncnc2c1ccn2[C@@H]1O[C@H](CO)[C@@H](O)[C@H]1O [RC5, 4-Methyl-7-(β-D-ribofuranosyl)-7H-pyrrolo[2,3-d]pyrimidine, reference compound] |  |  |  |  |  | 0.23 µM | 0.06 µM | 0.09 µM | 0.02 µM | 0.07 µM | 0.01 µM |
| CNc1ncnc2c1c(-c1ccccc1)cn2[C@@H]1O[C@H](CO)[C@@H](O)[C@H]1O [Compound 3e, 4-Methylamino-5-phenyl-7-(β-D-ribofuranosyl)-7H-pyrrolo[2,3-d]pyrimidine] | > 20 µM | > 100 µM | > 20 µM | > 100 µM | > 20 µM | > 44 µM |  |  |  |  |  |
| CSc1ncnc2c1c(-c1ccco1)cn2[C@@H]1O[C@H](CO)[C@@H](O)[C@H]1O [Compound 2a, 5-(Furan-2-yl)-4-methylsulfanyl-7-(β-D-ribofuranosyl)-7H-pyrrolo[2,3-d]pyrimidine] | 0.22 µM | 73.9 µM | 0.12 µM | 0.26 µM | 0.05 µM | 38.6 µM |  |  |  |  |  |
| CNc1ncnc2c1ccn2[C@@H]1O[C@H](CO)[C@@H](O)[C@H]1O [RC3, reference compound] | > 20 µM | 97.8 µM | 12.8 µM | 91.4 µM | > 20 µM | > 44 µM |  |  |  |  |  |
| CSc1ncnc2c1c(-c1cccs1)cn2[C@@H]1O[C@H](CO)[C@@H](O)[C@H]1O [Compound 2c, 4-Methylsulfanyl-7-(β-D-ribofuranosyl)-5-(thiophen-2-yl)-7H-pyrrolo[2,3-d]pyrimidine] | > 20 µM | > 100 µM | 1.13 µM | 96.9 µM | > 20 µM | > 44 µM |  |  |  |  |  |
| Cc1ncnc2c1c(-c1ccccc1)cn2[C@@H]1O[C@H](CO)[C@@H](O)[C@H]1O [Compound 5e, 4-Methyl-5-phenyl-7-(β-D-ribofuranosyl)-7H-pyrrolo[2,3-d]pyrimidine] | > 20 µM | > 100 µM | > 20 µM | > 100 µM | > 20 µM | > 44 µM |  |  |  |  |  |
| CN(C)c1ncnc2c1c(-c1ccccc1)cn2[C@@H]1O[C@H](CO)[C@@H](O)[C@H]1O [Compound 4e, 4-Dimethylamino-5-phenyl-7-(β-D-ribofuranosyl)-7H-pyrrolo[2,3-d]pyrimidine] | > 20 µM | > 100 µM | > 20 µM | > 100 µM | > 20 µM | > 44 µM |  |  |  |  |  |
| CSc1ncnc2c1c(I)cn2[C@@H]1O[C@H](CO)[C@@H](O)[C@H]1O [Compound 2h, 5-Iodo-4-methylsulfanyl-7-(β-D-ribofuranosyl)-7H-pyrrolo[2,3-d]pyrimidine] | > 20 µM | > 100 µM | 0.05 µM | 86.1 µM | > 20 µM | > 44 µM |  |  |  |  |  |
| CN(C)c1ncnc2c1c(-c1cc3ccccc3o1)cn2[C@@H]1O[C@H](CO)[C@@H](O)[C@H]1O [Compound 4f, 5-(Benzofuran-2-yl)-4-dimethylamino-7-(β-D-ribofuranosyl)-7H-pyrrolo[2,3-d]pyrimidine] | > 20 µM | > 100 µM | > 20 µM | > 100 µM | > 20 µM | > 44 µM |  |  |  |  |  |
| C#Cc1cn([C@@H]2O[C@H](CO)[C@@H](O)[C@H]2O)c2ncnc(NC)c12 [Compound 3g, 5-Ethynyl-4-methylamino-7-(β-D-ribofuranosyl)-7H-pyrrolo[2,3-d]pyrimidine] | > 15 µM | > 100 µM | 9.06 µM | 86 µM | > 20 µM | > 44 µM |  |  |  |  |  |
